Assay results: ChEMBL document CHEMBL5346961, “Discovery and Evaluation of 3-Quinoxalin Urea Derivatives as Potent, Selective, and Orally Available ATM Inhibitors Combined with Chemotherapy for the Treatment of Cancer via Goal-Oriented Molecule Generation and Virtual Screening” (J Med Chem, 2023)
pIC50: −log10 of the molar value. One block for each molecule: values may come before it. The source made the active and inactive calls. The rule behind the calls is not given here.

Legend:
[1] = target: Phosphatidylinositol 4,5-bisphosphate 3-kinase catalytic subunit alpha isoform (Homo sapiens, UniProt P42336); test: Inhibition of PIK3alpha (unknown origin)
Sequence of Phosphatidylinositol 4,5-bisphosphate 3-kinase catalytic subunit alpha isoform (P42336 whole entry, canonical isoform): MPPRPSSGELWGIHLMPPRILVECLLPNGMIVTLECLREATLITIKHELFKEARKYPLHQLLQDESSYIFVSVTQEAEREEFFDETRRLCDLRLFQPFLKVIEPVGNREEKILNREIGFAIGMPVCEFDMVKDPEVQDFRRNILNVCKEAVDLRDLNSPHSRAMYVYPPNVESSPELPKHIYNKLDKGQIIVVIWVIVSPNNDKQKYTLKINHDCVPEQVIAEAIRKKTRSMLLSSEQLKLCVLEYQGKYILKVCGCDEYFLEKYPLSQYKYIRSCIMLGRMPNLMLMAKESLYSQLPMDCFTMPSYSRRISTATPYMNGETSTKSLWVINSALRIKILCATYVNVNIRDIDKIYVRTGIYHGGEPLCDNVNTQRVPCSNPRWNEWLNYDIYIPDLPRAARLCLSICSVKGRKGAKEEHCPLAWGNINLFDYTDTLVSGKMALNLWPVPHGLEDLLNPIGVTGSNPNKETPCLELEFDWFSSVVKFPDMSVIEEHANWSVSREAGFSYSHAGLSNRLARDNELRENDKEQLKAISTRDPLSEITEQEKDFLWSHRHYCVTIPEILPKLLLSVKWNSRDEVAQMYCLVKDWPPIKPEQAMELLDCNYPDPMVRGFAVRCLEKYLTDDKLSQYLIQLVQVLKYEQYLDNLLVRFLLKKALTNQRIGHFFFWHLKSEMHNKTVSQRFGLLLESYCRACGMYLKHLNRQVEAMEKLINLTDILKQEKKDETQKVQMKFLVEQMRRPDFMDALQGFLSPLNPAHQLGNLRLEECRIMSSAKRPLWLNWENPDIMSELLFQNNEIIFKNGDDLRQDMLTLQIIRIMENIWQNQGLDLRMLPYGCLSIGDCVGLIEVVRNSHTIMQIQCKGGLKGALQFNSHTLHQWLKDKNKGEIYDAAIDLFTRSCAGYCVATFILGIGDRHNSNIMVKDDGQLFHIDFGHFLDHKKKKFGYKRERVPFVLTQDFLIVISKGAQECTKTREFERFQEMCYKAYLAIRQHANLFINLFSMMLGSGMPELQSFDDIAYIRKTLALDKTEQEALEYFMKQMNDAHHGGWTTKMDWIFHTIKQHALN

[2] = target: T1, Serine-protein kinase ATM (Homo sapiens, UniProt Q13315); test: Inhibition of flag tagged- ATM (unknown origin) expressed in Escherichia coli BL21 incubated for 20 mins in presence of ATP
T1 sequence (Q13315 whole entry): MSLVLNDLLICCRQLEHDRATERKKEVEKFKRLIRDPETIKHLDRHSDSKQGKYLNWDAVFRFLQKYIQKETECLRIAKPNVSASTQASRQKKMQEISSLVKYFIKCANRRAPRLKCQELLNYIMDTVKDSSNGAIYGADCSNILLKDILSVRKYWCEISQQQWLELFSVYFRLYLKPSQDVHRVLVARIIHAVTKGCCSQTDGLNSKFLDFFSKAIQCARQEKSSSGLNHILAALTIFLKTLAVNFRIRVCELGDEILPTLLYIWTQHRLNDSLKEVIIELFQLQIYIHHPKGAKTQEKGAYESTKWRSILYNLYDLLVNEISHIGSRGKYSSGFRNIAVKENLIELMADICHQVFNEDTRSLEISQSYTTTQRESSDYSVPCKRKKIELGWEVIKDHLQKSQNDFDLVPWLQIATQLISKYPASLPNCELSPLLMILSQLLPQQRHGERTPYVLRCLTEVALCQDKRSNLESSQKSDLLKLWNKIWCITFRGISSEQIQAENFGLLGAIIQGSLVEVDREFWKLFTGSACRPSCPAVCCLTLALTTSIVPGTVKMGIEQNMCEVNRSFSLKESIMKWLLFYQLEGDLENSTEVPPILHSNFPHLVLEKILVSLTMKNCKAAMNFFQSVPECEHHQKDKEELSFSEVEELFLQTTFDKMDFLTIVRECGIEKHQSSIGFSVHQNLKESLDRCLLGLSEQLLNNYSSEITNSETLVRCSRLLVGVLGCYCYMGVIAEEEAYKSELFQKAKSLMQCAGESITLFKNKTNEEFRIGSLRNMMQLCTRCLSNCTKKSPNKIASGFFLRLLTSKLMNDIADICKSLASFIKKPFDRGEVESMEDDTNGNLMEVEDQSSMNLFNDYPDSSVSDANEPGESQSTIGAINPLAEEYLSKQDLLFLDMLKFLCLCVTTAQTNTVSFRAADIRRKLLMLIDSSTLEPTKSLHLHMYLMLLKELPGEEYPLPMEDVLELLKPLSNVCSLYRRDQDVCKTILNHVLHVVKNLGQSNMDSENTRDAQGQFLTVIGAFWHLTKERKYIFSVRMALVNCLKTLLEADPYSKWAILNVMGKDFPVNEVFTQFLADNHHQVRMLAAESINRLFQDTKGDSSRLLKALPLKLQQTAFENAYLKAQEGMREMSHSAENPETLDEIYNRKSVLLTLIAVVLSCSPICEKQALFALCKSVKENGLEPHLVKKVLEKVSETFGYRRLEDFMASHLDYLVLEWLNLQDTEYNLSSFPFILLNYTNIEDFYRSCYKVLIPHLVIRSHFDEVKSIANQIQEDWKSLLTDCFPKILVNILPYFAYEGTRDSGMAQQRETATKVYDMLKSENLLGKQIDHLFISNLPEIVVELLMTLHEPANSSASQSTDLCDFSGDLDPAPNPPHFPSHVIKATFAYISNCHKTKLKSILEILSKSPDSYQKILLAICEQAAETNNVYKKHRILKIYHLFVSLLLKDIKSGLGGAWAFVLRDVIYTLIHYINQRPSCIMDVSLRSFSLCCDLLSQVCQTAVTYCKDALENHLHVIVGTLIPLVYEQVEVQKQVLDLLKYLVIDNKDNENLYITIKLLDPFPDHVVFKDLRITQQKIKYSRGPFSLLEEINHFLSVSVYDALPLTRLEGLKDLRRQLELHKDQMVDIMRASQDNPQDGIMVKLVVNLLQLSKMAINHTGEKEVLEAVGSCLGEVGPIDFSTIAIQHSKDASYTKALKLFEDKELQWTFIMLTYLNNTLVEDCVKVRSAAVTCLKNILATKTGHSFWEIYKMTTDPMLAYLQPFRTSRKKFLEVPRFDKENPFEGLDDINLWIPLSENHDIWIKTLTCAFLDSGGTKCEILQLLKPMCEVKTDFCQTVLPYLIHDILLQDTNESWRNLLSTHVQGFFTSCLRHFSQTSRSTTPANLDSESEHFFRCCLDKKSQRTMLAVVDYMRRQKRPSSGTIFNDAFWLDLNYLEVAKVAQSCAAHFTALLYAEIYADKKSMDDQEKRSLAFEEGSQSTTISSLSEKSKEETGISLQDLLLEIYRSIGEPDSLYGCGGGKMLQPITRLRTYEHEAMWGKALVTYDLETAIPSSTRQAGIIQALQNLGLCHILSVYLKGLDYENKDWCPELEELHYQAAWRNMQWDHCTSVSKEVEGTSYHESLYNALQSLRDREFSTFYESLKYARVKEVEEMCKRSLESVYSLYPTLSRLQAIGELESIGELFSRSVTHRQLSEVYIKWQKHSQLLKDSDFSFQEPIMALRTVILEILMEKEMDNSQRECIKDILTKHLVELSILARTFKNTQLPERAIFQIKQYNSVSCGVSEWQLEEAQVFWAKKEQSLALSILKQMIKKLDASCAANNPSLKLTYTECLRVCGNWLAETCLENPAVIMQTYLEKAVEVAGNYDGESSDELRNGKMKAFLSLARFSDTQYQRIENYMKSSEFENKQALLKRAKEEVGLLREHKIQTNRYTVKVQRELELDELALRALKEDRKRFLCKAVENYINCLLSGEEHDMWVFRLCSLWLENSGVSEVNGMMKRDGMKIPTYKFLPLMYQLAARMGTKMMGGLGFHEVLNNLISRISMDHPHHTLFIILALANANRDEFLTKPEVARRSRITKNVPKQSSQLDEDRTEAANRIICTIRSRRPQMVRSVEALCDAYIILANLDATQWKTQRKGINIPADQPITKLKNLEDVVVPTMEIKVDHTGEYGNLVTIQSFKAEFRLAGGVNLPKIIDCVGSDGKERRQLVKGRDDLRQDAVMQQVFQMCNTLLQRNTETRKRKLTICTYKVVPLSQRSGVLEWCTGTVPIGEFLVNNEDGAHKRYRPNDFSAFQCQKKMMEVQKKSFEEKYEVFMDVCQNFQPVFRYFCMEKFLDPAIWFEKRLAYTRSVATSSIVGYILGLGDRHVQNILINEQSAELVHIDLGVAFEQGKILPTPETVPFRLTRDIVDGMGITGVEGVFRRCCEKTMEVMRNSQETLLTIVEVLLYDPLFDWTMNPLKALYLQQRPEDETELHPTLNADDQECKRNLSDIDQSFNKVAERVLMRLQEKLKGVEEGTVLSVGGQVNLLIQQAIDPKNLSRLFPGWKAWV

[3] = target: DNA-dependent protein kinase catalytic subunit (Homo sapiens, UniProt P78527); test: Inhibition of DNA-PK (unknown origin)
[4] = target: T1, Serine-protein kinase ATM; test: Inhibition of ATM (unknown origin) assessed as remaining activity at 0.01 uM preincubated with compound for 30 mins followed by substrate addition and measured after 2 hrs by HTRF method relative to control; conditions: time 2.5 hrs
HCT-116 [5] = test: Inhibition of colony formation in human HCT-116 cells at 0.01 uM preincubated for 1 hr followed by exposure to 2 Gy gamma irradiation and measured after 1 week by crystal violet staining based […] assay relative to control; format: functional; conditions: HCT-116, light or radiation study, time 169 hrs
HCT-116 [6] = test: Antiproliferative activity against human HCT-116 cells assessed as cell survival at 1 uM incubated for 6 days by MTT assay relative to control; format: functional; conditions: HCT-116, 144 h, time 6 day, read-out: Survival
[7] = target: T1, Serine-protein kinase ATM; test: Inhibition of ATM (unknown origin) preincubated with compound for 30 mins followed by substrate addition and measured after 2 hrs by HTRF method
[8] = Metabolic stability in human liver microsomes assessed as clearance at 1 uM in presence of NADPH-regenerating system by LC-MS/MS analysis; format: ADME, Microsome
[9] = Metabolic stability in human liver microsomes assessed as half life at 1 uM in presence of NADPH-regenerating system by LC-MS/MS analysis; format: ADME, Microsome
HCT-116 [10] = test: Inhibition of colony formation in human HCT-116 cells preincubated for 1 hr followed by exposure to 2 Gy gamma irradiation and measured after 1 week by crystal violet staining based […] assay; format: functional, cell-based; conditions: HCT-116, light or radiation study
[11] = target: T1, Serine-protein kinase ATM; test: Inhibition of ATM (unknown origin) assessed as remaining activity at 1 uM preincubated with compound for 30 mins followed by substrate addition and measured after 2 hrs by HTRF method relative to control; conditions: time 2.5 hrs
[12] = AUC (0 to t) in Balb/C mouse at 10 mg/kg,iv measured upto 48 hrs by LC-MS/MS analysis; format: ADME, organism-based; set-up: time < 48 hrs, dose 10 mg/kg, route iv; conditions: in vivo
[13] = Oral bioavailability in Balb/C mouse at 10 mg/kg measured upto 48 hrs by LC-MS/MS analysis; format: ADME, organism-based; conditions: in vivo
[14] = Cmax in Balb/C mouse at 10 mg/kg,iv measured upto 48 hrs by LC-MS/MS analysis; format: ADME, organism-based; set-up: time < 48 hrs, dose 10 mg/kg, route iv; conditions: in vivo
SW-620 [15] = test: Antiproliferative activity against human SW620 cells assessed as reduction in cell viability incubated for 6 days by MTT assay; format: functional, cell-based; conditions: SW-620, 144 h
[16] = Half life in Balb/C mouse at 10 mg/kg,po measured upto 48 hrs by LC-MS/MS analysis; format: ADME, organism-based; conditions: in vivo
[17] = Clearance in Balb/C mouse at 10 mg/kg,po measured upto 48 hrs by LC-MS/MS analysis; format: ADME, organism-based; conditions: in vivo
[18] = Tmax in Balb/C mouse at 10 mg/kg,iv measured upto 48 hrs by LC-MS/MS analysis; format: ADME, organism-based; conditions: in vivo
MCF7 [19] = test: Antiproliferative activity against human MCF7 cells assessed as reduction in cell viability incubated for 6 days by MTT assay; format: functional, cell-based; conditions: MCF7, 144 h
[20] = Tmax in Balb/C mouse at 10 mg/kg,po measured upto 48 hrs by LC-MS/MS analysis; format: ADME, organism-based; conditions: in vivo
SW-620 [21] = test: Synergistic inhibition of colony formation in human SW620 cells assessed as fold increase in irinotecan IC50 at 200 nM preincubated for 1 hr followed by irinotecan addition and measured after 1 week by crystal violet staining based […] assay; format: functional; conditions: time 169 hrs
SW-620 [22] = test: Synergistic antiproliferative activity against human SW620 cells assessed as fold increase in irinotecan IC50 at 200 nM measured after 6 days by MTT assay; format: functional; conditions: time 6 day
[23] = Cmax in Balb/C mouse at 10 mg/kg,po measured upto 48 hrs by LC-MS/MS analysis; format: ADME, organism-based; set-up: dose 10 mg/kg, time < 48 hrs, route po; conditions: in vivo
HCT-116 [24] = test: Induction of DNA damage in human HCT-116 cells assessed as reduction in p21 phosphorylation at T145 residue at 2 uM measured after 4 hrs by Western blot analysis; format: functional, cell-based
HCT-116 [25] = test: Antiproliferative activity against human HCT-116 cells assessed as reduction in cell viability incubated for 6 days by MTT assay; format: functional, cell-based; conditions: HCT-116, 144 h
[26] = Half life in Balb/C mouse at 10 mg/kg,iv measured upto 48 hrs by LC-MS/MS analysis; format: ADME, organism-based; conditions: in vivo
[27] = Clearance in Balb/C mouse at 10 mg/kg,iv measured upto 48 hrs by LC-MS/MS analysis; format: ADME, organism-based; conditions: in vivo
[28] = AUC (0 to t) in Balb/C mouse at 10 mg/kg,po measured upto 48 hrs by LC-MS/MS analysis; format: ADME, organism-based; set-up: dose 10 mg/kg, time < 48 hrs, route po; conditions: in vivo
MCF7 [29] = test: Synergistic antiproliferative activity against human MCF7 cells assessed as fold increase in irinotecan IC50 at 200 nM measured after 6 days by MTT assay; format: functional; conditions: time 6 day
[30] = Volume of distribution at steady state in Balb/C mouse at 10 mg/kg,iv measured upto 48 hrs by LC-MS/MS analysis; format: ADME, organism-based; conditions: in vivo, read-out: Vdss
HCT-116 [31] = test: Induction of DNA damage in human HCT-116 cells assessed as reduction in ATM phosphorylation at S1981 residue at 2 uM measured after 4 hrs by Western blot analysis; format: functional, cell-based
SW-620 [32] = test: Antitumor activity against human SW620 cells xenografted in BALB/c nude mouse model assessed as tumor growth inhibition at 40 mg/kg, po administered once daily for 3 days weekly after irinotecan post treatment for 21 days by caliper method relative to control; format: functional; conditions: SW-620, 504 h, time 21 day, read-out: TGI
HCT-116 [33] = test: Inhibition of colony formation in human HCT-116 cells assessed as assessed as fold change in IC50 in presence of ionizing radiation; format: functional
MCF7 [34] = test: Synergistic antiproliferative activity against human MCF7 cells assessed as fold increase in etoposide IC50 at 200 nM measured after 6 days by MTT assay; format: functional; conditions: time 6 day
[35] = Volume of distribution at steady state in Balb/C mouse at 10 mg/kg,po measured upto 48 hrs by LC-MS/MS analysis; format: ADME, organism-based; conditions: in vivo
MCF7 [36] = test: Synergistic antiproliferative activity against human MCF7 cells assessed as combination index at […] measured after 6 days in presence etoposide by MTT assay; format: functional; conditions: dose lower 100 µM; time 6 day
MCF7 [37] = test: Synergistic antiproliferative activity against human MCF7 cells assessed as combination index at […] measured after 6 days in presence irinotecan by MTT assay; format: functional; conditions: dose lower 100 µM; time 6 day
MCF7 [38] = test: cells; conditions: Homo sapiens, MCF7, 144 h
[39] = target: Serine/threonine-protein kinase ATR (Homo sapiens, UniProt Q13535); test: Inhibition of ATR (unknown origin) assessed as remaining activity at 1 uM in presence of [gamma33P-ATP] by radiometric assay

pIC50 [1]: 6.77
pIC50 [2]: 6.26
pIC50 [3]: 7.44
SMILES: CC(C)(C#N)c1ccc(N2C(=O)OCc3cnc4ccc(-c5cnc6ccccc6c5)cc4c32)cc1

SMILES: CCN(CC)CCCOc1ccc(-c2ccc3ncc(N(C)C(=O)NC(C)C)nc3c2)cn1
Activity [4]: 19%
inhibition at 0.01 µM (HCT-116 [5]): 72.8%
viability at 1 µM (HCT-116 [6]): > 83%
pIC50 [7]: 9.00
CLH [8]: 14 mL/min/g
half-life at 1 µM [9]: 1.65 h
pIC50 (HCT-116 [10]): 8.16
Activity [11]: -3%

SMILES: COCc1ccc(-c2ccc3ncc(C(N)=O)c(N[C@@H](C)C4CCOCC4)c3c2)cn1
AUCt [12]: 7.77202 µg·h/mL
inhibition at 0.01 µM (HCT-116 [5]): 13.2%
bioavailability [13]: 95.2%
Cmax [14]: 3.01 µg/mL
pIC50 (SW-620 [15]): < 5.05
t1/2 [16]: 3.16 h
CL/F [17]: 1.38 L/h/kg
viability at 1 µM (HCT-116 [6]): > 83%
Tmax [18]: 4.8 min
pIC50 (MCF7 [19]): < 5.05
Tmax [20]: 1.33 h
fold change (FC) (SW-620 [21]): 3.3
fold change (FC) (SW-620 [22]): 1.5
Cmax [23]: 1.36 µg/mL
Activity (HCT-116 [24]): Active
CLH [8]: 7.2 mL/min/g
pIC50 (HCT-116 [25]): < 5.05
t1/2 [26]: 4.28 h
clearance [27]: 1.32 L/h/kg
AUCt [28]: 7.39676 µg·h/mL
fold change (FC) (MCF7 [29]): 2.1
half-life at 1 µM [9]: 3.22 h
pIC50 (HCT-116 [10]): 7.70
Vd [30]: 7.68 L/kg
Activity (HCT-116 [31]): Active
inhibition in vivo at 40 mg/kg (SW-620 [32]): 77.7%
fold change (FC) (HCT-116 [33]): 6520
fold change (FC) (MCF7 [34]): 1.4
Vdss [35]: 6.49 L/kg

SMILES: CC(C)NC(=O)N(C)c1cnc2ccc(-c3ccc(OCCCN4CCCC4)nc3)cc2n1
CI (MCF7 [36]): <1
inhibition at 0.01 µM (HCT-116 [5]): 83.8%
pIC50 (SW-620 [15]): < 5.05
viability at 1 µM (HCT-116 [6]): > 83%
pIC50 (MCF7 [19]): < 5.05
pIC50 [7]: 8.76
CI (MCF7 [37]): <1
CLH [8]: 5.2 mL/min/g
fold change (FC) (MCF7 [29]): 13
half-life at 1 µM [9]: 4.45 h
pIC50 (HCT-116 [10]): 8.75
fold change (FC) (HCT-116 [33]): 8284
fold change (FC) (MCF7 [34]): 3

pIC50 (MCF7 [38]): 6.68
SMILES: COc1cc([C@@H]2c3cc4c(cc3[C@@H](O[C@@H]3O[C@@H]5CO[C@@H](C)O[C@H]5[C@H](O)[C@H]3O)[C@H]3COC(=O)[C@H]23)OCO4)cc(OC)c1O [ETOPOSIDE]

SMILES: CCCCNC(=O)N(C)c1cnc2ccc(-c3ccc(OCCCN(C)C)nc3)cc2n1
Activity [4]: 3%
inhibition at 0.01 µM (HCT-116 [5]): 92.7%
viability at 1 µM (HCT-116 [6]): > 83%
pIC50 [7]: 9.10
CLH [8]: 64 mL/min/g
Activity [39]: 105%
half-life at 1 µM [9]: 0.367 h
pIC50 (HCT-116 [10]): 8.12

SMILES: CC(C)NC(=O)N(C)c1cnc2ccc(-c3ccc(OCCCN(C)C)nc3)cc2n1
Activity [4]: 14%
inhibition at 0.01 µM (HCT-116 [5]): 58.4%
viability at 1 µM (HCT-116 [6]): > 83%
pIC50 [7]: 8.70
CLH [8]: 40 mL/min/g
Activity [39]: 105%
half-life at 1 µM [9]: 0.583 h
pIC50 (HCT-116 [10]): 8.05
